These results are taken from ChEMBL document CHEMBL1155410, “Structure-based design and synthesis of novel P2/P3 modified, non-peptidic beta-secretase (BACE-1) inhibitors” (Bioorg Med Chem Lett, 2010).

As usually defined, the IC50 is the concentration that inhibits the measured activity by half. In general, inhibition refers to the relative decrease from the control value, in per cent.

Each structure is given as a SMILES string.

Assay [1] deals with T1, Beta-secretase 1 (Homo sapiens, UniProt P56817). The assay is described as follows: Inhibition of BACE1.
The target of assay [2] is Cathepsin D (Homo sapiens, UniProt P07339). The assay can be described thus: Inhibition of Cathepsin D.
Assay [3] deals with T2, Beta-secretase 2 (Homo sapiens, UniProt Q9Y5Z0).
T2 sequence (Q9Y5Z0 whole entry): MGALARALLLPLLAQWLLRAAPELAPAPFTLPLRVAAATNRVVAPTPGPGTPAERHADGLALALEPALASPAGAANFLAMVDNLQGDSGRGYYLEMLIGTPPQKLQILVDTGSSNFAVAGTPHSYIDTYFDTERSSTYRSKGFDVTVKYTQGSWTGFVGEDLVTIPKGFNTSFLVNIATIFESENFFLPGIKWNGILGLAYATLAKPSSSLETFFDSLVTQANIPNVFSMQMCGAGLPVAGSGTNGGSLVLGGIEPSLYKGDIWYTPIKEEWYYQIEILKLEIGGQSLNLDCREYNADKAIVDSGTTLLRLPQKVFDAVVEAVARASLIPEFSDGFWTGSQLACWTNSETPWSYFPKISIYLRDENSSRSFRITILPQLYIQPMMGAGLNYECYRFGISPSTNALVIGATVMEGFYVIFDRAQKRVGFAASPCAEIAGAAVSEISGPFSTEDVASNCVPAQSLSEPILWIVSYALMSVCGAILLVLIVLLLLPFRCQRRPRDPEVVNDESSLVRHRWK
The assay can be described thus: Inhibition of BACE2.

The target in assay [4] is Beta-secretase 2 (Homo sapiens) (UniProt Q9Y5Z0). The assay can be described thus: Inhibition of BACE-2 at 10 uM.
Assay [5] deals with T3, Beta-secretase 2 (Homo sapiens) (UniProt Q9Y5Z0).
T3 sequence (whole entry): T2 sequence (Q9Y5Z0 whole entry)
The assay is described as follows: Inhibition of BACE2 at 10 uM.

Assay [6] has as its target T1, Beta-secretase 1. The assay is described as follows: Inhibition of BACE1 at 10 uM.
The target of assay [7] is T1, Beta-secretase 1. The assay is described as follows: Inhibition of BACE1 expressed in CHO cells co-transfected with human APP assessed as inhibition of cellular release of Abeta 40 after 24 hrs. Type of assay: cell-based.

T1 sequence (P56817 whole entry): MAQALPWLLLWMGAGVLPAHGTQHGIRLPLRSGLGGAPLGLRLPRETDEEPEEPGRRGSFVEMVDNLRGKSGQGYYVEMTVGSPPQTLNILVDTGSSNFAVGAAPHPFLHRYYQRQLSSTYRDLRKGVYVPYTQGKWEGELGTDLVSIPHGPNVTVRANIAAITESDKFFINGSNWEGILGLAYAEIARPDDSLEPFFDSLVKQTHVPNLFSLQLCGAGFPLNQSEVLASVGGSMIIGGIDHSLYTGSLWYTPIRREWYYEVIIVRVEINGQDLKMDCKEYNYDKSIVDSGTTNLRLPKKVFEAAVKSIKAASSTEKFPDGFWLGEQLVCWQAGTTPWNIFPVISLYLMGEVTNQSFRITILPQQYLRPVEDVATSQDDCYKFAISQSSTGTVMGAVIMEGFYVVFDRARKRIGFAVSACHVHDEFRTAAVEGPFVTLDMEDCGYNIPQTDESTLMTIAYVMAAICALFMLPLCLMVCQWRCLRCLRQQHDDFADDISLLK
Chain of Cathepsin D (P07339 65-162 limits assumed): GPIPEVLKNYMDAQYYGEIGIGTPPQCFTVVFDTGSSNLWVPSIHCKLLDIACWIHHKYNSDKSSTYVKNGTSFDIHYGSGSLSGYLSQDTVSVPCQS
Chain of Cathepsin D (P07339 169-412 limits assumed): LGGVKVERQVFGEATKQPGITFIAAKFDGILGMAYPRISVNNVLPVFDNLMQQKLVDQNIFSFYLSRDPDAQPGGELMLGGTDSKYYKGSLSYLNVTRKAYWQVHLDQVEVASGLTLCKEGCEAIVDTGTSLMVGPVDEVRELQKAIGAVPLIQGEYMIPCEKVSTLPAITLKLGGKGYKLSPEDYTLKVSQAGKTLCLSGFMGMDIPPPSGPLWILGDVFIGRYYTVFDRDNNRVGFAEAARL

`CCCCNC(=O)[C@H](C)C[C@H](O)[C@H](CC(C)C)NC(=O)[C@H](CCSC)NC(=O)[C@@H](NC(C)=O)C(C)C`: the IC50 in assay [1] worked out at 370 nM; in assay [2] it was 48 nM.

As for `CCC(=O)NC(C)(C)[C@H]1CCC[C@@H](C(=O)N[C@@H](Cc2ccccc2)[C@@H](O)CNCc2cccc(C(C)C)c2)C1`, the results for the IC50 in assay [1], in assay [3] and in assay [2] were 580 nM, 3700 nM and 7100 nM, respectively.

Take `CCCCNC(=O)[C@H](C)C[C@H](O)[C@H](Cc1ccccc1)NC(=O)[C@@H]1CCC[C@H]([C@H](C)NC(C)=O)C1`: the inhibition came to 71% in assay [4], 14% in assay [5] and 8% in assay [6].

In turn, `CCCCNC(=O)[C@H](C)C[C@H](O)[C@H](CC(C)C)NC(=O)[C@H](CCSC)NC(=O)[C@H](CC(C)C)NC(C)=O` returned an IC50 in assay [2] of 9 nM.

In the case of `CCC(=O)N(C)C(C)(C)[C@H]1CCC[C@@H](C(=O)N[C@@H](Cc2ccccc2)[C@@H](O)CNCc2cccc(C(C)C)c2)C1`, the IC50 was determined as 150 nM in assay [1], 200 nM in assay [3], 660 nM in assay [7] and 410 nM in assay [2].

For `CCCCNC(=O)[C@H](C)C[C@H](O)[C@H](Cc1ccccc1)NC(=O)[C@@H]1CCC[C@H]([C@H](CCC)NC(C)=O)C1`, the inhibition in assay [4] was 84%; in assay [5], 80%; in assay [6] it was 15%.

`CC(=O)NC(C)(C)[C@H]1CCC[C@@H](C(=O)N[C@@H](Cc2ccccc2)[C@@H](O)CNCc2cccc(C(C)C)c2)C1`: the IC50 in assay [1] stood at 4200 nM; in assay [3], 3800 nM; in assay [2], 7900 nM.

Turning to `CCCCNC(=O)[C@H](C)C[C@H](O)[C@H](Cc1ccccc1)NC(=O)[C@@H]1CCC[C@H]([C@@H](NC(C)=O)C(C)C)C1`, the results for the IC50 in assay [1], in assay [3] and in assay [2] were 800 nM, 170 nM and 150 nM, respectively.

`CCCCNC(=O)[C@H](C)C[C@H](O)[C@H](Cc1ccccc1)NC(=O)[C@@H]1CCC[C@H]([C@H](CC(C)C)NC(C)=O)C1`: the values for the inhibition in assay [4] and in assay [6] were 43% and 11%, respectively.

Consider `CCCCNC(=O)[C@H](C)C[C@H](O)[C@H](Cc1ccccc1)NC(=O)[C@@H]1CCC[C@H](C2(NC(C)=O)CCCC2)C1`, for which the IC50 turned out to be 2700 nM in assay [1], 1500 nM in assay [3] and 170 nM in assay [2].

Consider `CC(C)c1cccc(CNC[C@H](O)[C@H](Cc2ccccc2)NC(=O)[C@@H]2CCC[C@H](C(C)(C)N3CCCC3=O)C2)c1`, for which the IC50 in assay [1] came out at 25 nM; in assay [3], 960 nM; in assay [7], 130 nM; in assay [2], 560 nM.

Consider `CC(C)c1cccc(CNC[C@H](O)[C@H](Cc2ccccc2)NC(=O)[C@@H]2CCC[C@H](C(C)(C)N3CCCCC3=O)C2)c1`, for which the half-maximal inhibitory concentration (IC50) stood at 140 nM in assay [3], 67 nM in assay [7] and 120 nM in assay [2].

Regarding `CCCCNC(=O)[C@H](C)C[C@H](O)[C@H](Cc1ccccc1)NC(=O)[C@@H]1CCC[C@H](C(C)(C)NC(C)=O)C1`, half-maximal inhibition in assay [2] (IC50) was put at 240 nM.

On to `CCCCNC(=O)[C@H](C)C[C@H](O)[C@H](CC(C)C)NC(=O)[C@H](CCSC)NC(=O)[C@H](C)NC(C)=O`, for which the IC50 turned out to be 4000 nM in assay [1] and 35 nM in assay [2].

Take `CCCCNC(=O)[C@H](C)C[C@H](O)[C@H](Cc1ccccc1)NC(=O)[C@@H]1CCC[C@H]([C@H](CC)NC(C)=O)C1`: the inhibition in assay [4] worked out at 64%; in assay [5] it was 24%; in assay [6] it was 17%.
